We go through 14 compounds from ChEMBL document CHEMBL4627313, “Discovery of sulfonamides and 9-oxo-2,8-diazaspiro[5,5]undecane-2-carboxamides as human kynurenine aminotransferase 2 (KAT2) inhibitors” (Bioorg Med Chem Lett, 2020).

pIC50: −log10 of the molar value. Bounds are passed on as bounds.

Experiment [1] has as its target T1, Kynurenine/alpha-aminoadipate aminotransferase, mitochondrial (Homo sapiens, UniProt Q8N5Z0). The experiment can be described thus: Reversible inhibition of recombinant human KAT2 assessed as reduction in kynurenic acid formation using L-kynurenine as substrate by fluorescence assay.
Target sequence in this assay (Q8N5Z0 whole entry): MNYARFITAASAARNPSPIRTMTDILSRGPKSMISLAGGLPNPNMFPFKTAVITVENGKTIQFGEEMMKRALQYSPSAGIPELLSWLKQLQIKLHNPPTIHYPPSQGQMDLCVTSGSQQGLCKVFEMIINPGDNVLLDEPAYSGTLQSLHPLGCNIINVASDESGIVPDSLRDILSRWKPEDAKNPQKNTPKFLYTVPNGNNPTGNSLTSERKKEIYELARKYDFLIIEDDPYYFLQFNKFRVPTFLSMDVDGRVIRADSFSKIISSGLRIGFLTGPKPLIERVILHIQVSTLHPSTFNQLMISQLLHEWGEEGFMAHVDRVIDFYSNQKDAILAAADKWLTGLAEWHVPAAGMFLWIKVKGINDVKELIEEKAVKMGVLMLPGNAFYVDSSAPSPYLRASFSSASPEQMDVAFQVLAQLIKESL
The target of experiment [2] is T1, Kynurenine/alpha-aminoadipate aminotransferase, mitochondrial. As to the kind of experiment: Reversible inhibition of recombinant human KAT2 assessed as reduction in kynurenic acid formation at 50 uM using L-kynurenine as substrate by fluorescence assay relative to control.
Target sequence in this assay (Q8N5Z0 30-425 limits assumed): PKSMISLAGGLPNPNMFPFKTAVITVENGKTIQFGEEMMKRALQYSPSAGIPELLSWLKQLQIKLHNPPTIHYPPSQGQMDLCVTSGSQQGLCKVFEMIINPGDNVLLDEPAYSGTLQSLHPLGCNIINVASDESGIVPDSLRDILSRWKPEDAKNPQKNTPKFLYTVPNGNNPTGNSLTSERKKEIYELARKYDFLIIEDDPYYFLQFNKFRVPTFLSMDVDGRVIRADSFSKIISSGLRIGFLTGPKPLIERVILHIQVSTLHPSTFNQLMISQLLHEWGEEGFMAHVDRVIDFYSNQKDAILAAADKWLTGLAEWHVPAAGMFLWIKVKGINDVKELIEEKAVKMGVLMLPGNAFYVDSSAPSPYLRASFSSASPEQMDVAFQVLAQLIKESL
For experiment [3] the target is unchanged. As to the kind of experiment: Binding affinity to recombinant human KAT2 assessed as change in temperature by thermal shift assay.
Target sequence in this assay (Q8N5Z0 30-425 limits assumed): as above

Turning to `O=S(=O)(Nc1nnc(C2(c3ccccc3)CC2)s1)c1cc(F)cc(F)c1`, in experiment [1], the pIC50 is 4.80. For the same compound, the inhibition in experiment [2] was determined as 88%. Also, the deltaT in experiment [3] stood at 1.7 °C.

As to `CC(C)C(Cc1nnc(NS(=O)(=O)c2cc(F)cc(F)c2)s1)c1cccc(F)c1` (stereo unspecified), the negative-log IC50 (pIC50) in experiment [1] is 5.80.

As for `O=S(=O)(NC1CCNC1)c1ccc(Cl)cc1C(F)(F)F` (stereo unspecified), the inhibition in experiment [2] was found to be 57%.

Take `O=S(=O)(Nc1nnc(CC2CCCC2)o1)c1ccccc1`: the inhibition in experiment [2] was found to be 47%.

Take `CCc1cccc(NC(=O)N2CCCC3(CCC(=O)N(CCC(C)C)C3)C2)c1` (racemic): the negative logarithm of the IC50 (pIC50) in experiment [1] was 5.10.

With `Cc1ccc(NC(=O)N2CCCC3(CCC(=O)N(CCC(C)C)C3)C2)cc1Cl` (racemic), the negative-log IC50 (pIC50) in experiment [1] is 6.09.

Consider `CCc1cccc(NC(=O)N2CCCC3(CCC(=O)N(CCC(C)C)C3)C2)c1` (stereo in doubt; 7 E1), for which the negative logarithm of the IC50 (pIC50) in experiment [1] was 5.36.

Take `CCc1cccc(NC(=O)N2CCCC3(CCC(=O)N(CCC(C)C)C3)C2)c1` (stereo in doubt; 7 E2): the pIC50 in experiment [1] is 4.01.

`Cc1cc(C)cc(NC(=O)N2CCCC3(CCC(=O)N(C4CC4)C3)C2)c1` (stereo in doubt; 9 E1): the pIC50 in experiment [1] was 5.35.

As to `Cc1cc(C)cc(NC(=O)N2CCCC3(CCC(=O)N(C4CC4)C3)C2)c1` (stereo in doubt; 9 E2), the negative logarithm of the IC50 (pIC50) in experiment [1] is 4.13.

Consider `O=C1CCC2(CCCN(C(=O)Nc3ccc(F)c(Cl)c3)C2)CN1CC1CC1` (stereo in doubt; 10 E1), for which the negative-log IC50 (pIC50) in experiment [1] was 5.62.

For the compound `O=C1CCC2(CCCN(C(=O)Nc3ccc(F)c(Cl)c3)C2)CN1CC1CC1` (stereo in doubt; 10 E2), the negative-log IC50 (pIC50) in experiment [1] is 4.02.

`COc1ccc(NC(=O)N2CCCC3(CCC(=O)N(C4CC4)C3)C2)cc1` (stereo in doubt; 11 E1): in experiment [1], the pIC50 was < 4.00.

Take `COc1ccc(NC(=O)N2CCCC3(CCC(=O)N(C4CC4)C3)C2)cc1` (stereo in doubt; 11 E2): the pIC50 in experiment [1] was 4.81.

As usually defined, the pIC50 is the negative decadic logarithm of the IC50, by convention in mol/L. For orientation: inhibition means the change of the read-out against control, counted positive when it falls.
